Test results reported in PubChem BioAssay AID330 (DTP/NCI, 2004).
Values joined by “and” are separate entries in the source; they are usually repeats but may differ in a detail not shown here. Equal entries are not always repeated. Inconclusive results and toxic doses are left out. The calls were made as follows: active = survival T/C of 150% or more; inactive = T/C below 125% in these data.

System: P388 leukemia ip, CD2F1 mice, survival T/C
Assay: NCI In Vivo Anticancer Drug Screen. Data for tumor model P388 Leukemia (intraperitoneal) in CD2F1 (CDF1) mice
Details: endpoint: median survival time, higher = longer survival
How it was run: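 Mice carrying the transplanted tumor received test compound or vehicle. Survival was recorded in each group, and the value is the treated-group measurement divided by that of the vehicle-treated control group.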

[1] = dose: 50.0 mg/kg/injection, schedule: Q01DX005 (ip), vehicle: saline with Tween-80
[2] = dose: 100.0 mg/kg/injection, schedule: Q01DX005 (ip), vehicle: saline with Tween-80
[3] = dose: 200.0 mg/kg/injection, schedule: Q01DX005 (ip), vehicle: saline with Tween-80
[4] = dose: 120.0 mg/kg/injection, schedule: Q01DX005 (ip), vehicle: Klucel (hydroxypropylcellulose) (HPC)
[5] = dose: 240.0 mg/kg/injection, schedule: Q01DX005 (ip), vehicle: Klucel (hydroxypropylcellulose) (HPC)
[6] = dose: 12.5 mg/kg/injection, schedule: Q01DX009 (ip), vehicle: Klucel (hydroxypropylcellulose) (HPC)
[7] = dose: 50.0 mg/kg/injection, schedule: Q01DX009 (ip), vehicle: Klucel (hydroxypropylcellulose) (HPC)
[8] = dose: 100.0 mg/kg/injection, schedule: Q01DX009 (ip), vehicle: Klucel (hydroxypropylcellulose) (HPC)
[9] = dose: 200.0 mg/kg/injection, schedule: Q01DX009 (ip), vehicle: Klucel (hydroxypropylcellulose) (HPC)

Measured: T/C

O=C(OCC(OC(=O)c1ccccc1)C(OC(=O)c1ccccc1)C(OC(=O)c1ccccc1)C(OC(=O)c1ccccc1)c1nn[nH]n1)c1ccccc1 (stereo not given)
inactive: dose: 12.5 mg/kg/injection, schedule: Q01DX005 (ip), vehicle: saline with Tween-80 94 % of control | dose: 25.0 mg/kg/injection, schedule: Q01DX005 (ip), vehicle: saline with Tween-80 86 % of control | [1] 90 % of control and 100 % of control | [2] 100 % of control | [3] 96 % of control

O=CNc1c(Nc2ccccc2)nc(-c2ccccc2)[nH]c1=O
inactive: dose: 15.0 mg/kg/injection, schedule: Q01DX009 (ip), vehicle: saline with Tween-80 105 % of control | dose: 30.0 mg/kg/injection, schedule: Q01DX009 (ip), vehicle: saline with Tween-80 91 % of control | dose: 60.0 mg/kg/injection, schedule: Q01DX009 (ip), vehicle: saline with Tween-80 91 % of control

OCc1ccc2c(c1)CCC2
inactive: dose: 50.0 mg/kg/injection, schedule: Q01DX009 (ip), vehicle: other 100 % of control

Nc1[nH]c(=S)[nH]c(=O)c1NS(=O)(=O)c1ccccc1
inactive: dose: 30.0 mg/kg/injection, schedule: Q01DX005 (ip), vehicle: Klucel (hydroxypropylcellulose) (HPC) 104 % of control and 106 % of control | [4] 98 % of control and 97 % of control | [5] 98 % of control and 108 % of control

CCSC/C(=N\Nc1ccc([N+](=O)[O-])cc1[N+](=O)[O-])c1ccccc1
inactive: dose: 100.0 mg/kg/injection, schedule: Q04DX003 (ip), vehicle: saline with Tween-80 100 % of control | dose: 200.0 mg/kg/injection, schedule: Q04DX003 (ip), vehicle: saline with Tween-80 95 % of control | dose: 400.0 mg/kg/injection, schedule: Q04DX003 (ip), vehicle: saline with Tween-80 90 % of control

CC(CC(O)C(=O)O)CC(C)(C)C (stereo not given)
inactive: [1] 95 % of control | [2] 96 % of control | [3] 101 % of control

Cc1cccc(Nc2nc(C)nc3[nH]cc(-c4ccccc4)c23)c1
inactive: dose: 6.25 mg/kg/injection, schedule: Q01DX005 (ip), vehicle: Klucel (hydroxypropylcellulose) (HPC) 91 % of control | dose: 12.5 mg/kg/injection, schedule: Q01DX005 (ip), vehicle: Klucel (hydroxypropylcellulose) (HPC) 90 % of control | dose: 200.0 mg/kg/injection, schedule: Q01DX005 (ip), vehicle: Klucel (hydroxypropylcellulose) (HPC) 88 % of control

Cc1c2cc[n+](C)cc2c(C)c2c1[nH]c1ccccc12
inactive: dose: 1.25 mg/kg/injection, schedule: Q04DX002 (ip), vehicle: water 103 % of control and 117 % of control | dose: 2.5 mg/kg/injection, schedule: Q04DX002 (ip), vehicle: water 114 % of control and 121 % of control | dose: 12.5 mg/kg/injection, schedule: Q04DX002 (ip), vehicle: distilled water + Tween-80 122 % of control

CC(=O)OCc1c(COC(C)=O)c(-c2ccccc2)n2c1CCC2
inactive: [6] 110 % of control | [7] 87 % of control

O=C1CSCc2nc3ccccc3n21
inactive: dose: 100.0 mg/kg/injection, schedule: Q01DX001 (ip), vehicle: saline 95 % of control | dose: 100.0 mg/kg/injection, schedule: Q01DX009 (ip), vehicle: saline 103 % of control | dose: 200.0 mg/kg/injection, schedule: Q01DX001 (ip), vehicle: saline 104 % of control | dose: 200.0 mg/kg/injection, schedule: Q01DX009 (ip), vehicle: saline 103 % of control | dose: 400.0 mg/kg/injection, schedule: Q01DX001 (ip), vehicle: saline 104 % of control

Cc1ccc2c(c1)C(=O)n1cccc1C(O)N2 (stereo not given)
inactive: dose: 0.1 mg/kg/injection, schedule: Q01DX005 (ip), vehicle: water 100 % of control | dose: 0.2 mg/kg/injection, schedule: Q01DX005 (ip), vehicle: water 99 % of control | dose: 0.4 mg/kg/injection, schedule: Q01DX005 (ip), vehicle: water 99 % of control | dose: 0.8 mg/kg/injection, schedule: Q01DX005 (ip), vehicle: water 98 % of control | dose: 1.6 mg/kg/injection, schedule: Q01DX005 (ip), vehicle: water 89 % of control | dose: 5.0 mg/kg/injection, schedule: Q01DX005 (ip), vehicle: distilled water + Tween-80 98 % of control | dose: 10.0 mg/kg/injection, schedule: Q01DX005 (ip), vehicle: distilled water + Tween-80 95 % of control | dose: 20.0 mg/kg/injection, schedule: Q01DX005 (ip), vehicle: distilled water + Tween-80 92 % of control | dose: 40.0 mg/kg/injection, schedule: Q01DX005 (ip), vehicle: distilled water + Tween-80 98 % of control | dose: 80.0 mg/kg/injection, schedule: Q01DX005 (ip), vehicle: distilled water + Tween-80 92 % of control

O=C(Nc1ccc(OCC2=NCCN2)cc1)c1ccc(C(=O)Nc2ccc(OCC3=NCCN3)cc2)cc1
inactive: [1] 108 % of control | [2] 103 % of control | [3] 105 % of control

Nc1cccc2cccnc12 (tested in a mixture with another compound)
inactive: dose: 6.25 mg/kg/injection, schedule: Q01DX009 (ip), vehicle: saline with Tween-80 97 % of control | dose: 12.5 mg/kg/injection, schedule: Q01DX009 (ip), vehicle: saline with Tween-80 103 % of control | dose: 25.0 mg/kg/injection, schedule: Q01DX009 (ip), vehicle: saline with Tween-80 106 % of control | dose: 50.0 mg/kg/injection, schedule: Q01DX009 (ip), vehicle: saline with Tween-80 104 % of control

CC(=O)Nc1c(Nc2ccc3c(=O)[nH]ccc3c2C)cc[nH]c1=O
inactive: dose: 60.0 mg/kg/injection, schedule: Q01DX005 (ip), vehicle: saline with Tween-80 102 % of control | dose: 120.0 mg/kg/injection, schedule: Q01DX005 (ip), vehicle: saline with Tween-80 104 % of control | dose: 240.0 mg/kg/injection, schedule: Q01DX005 (ip), vehicle: saline with Tween-80 103 % of control

Cl/N=C1/C=CC(Cl)=C/C1=N/Cl
inactive: dose: 25.0 mg/kg/injection, schedule: Q01DX005 (ip), vehicle: saline 100 % of control and 101 % of control | dose: 50.0 mg/kg/injection, schedule: Q01DX005 (ip), vehicle: saline 101 % of control and 102 % of control and 115 % of control | dose: 100.0 mg/kg/injection, schedule: Q01DX005 (ip), vehicle: saline 105 % of control and 106 % of control and 120 % of control | dose: 200.0 mg/kg/injection, schedule: Q01DX005 (ip), vehicle: saline 98 % of control and 101 % of control and 110 % of control

Cn1nnnc1N/N=C(\Br)c1ccccc1
inactive: dose: 200.0 mg/kg/injection, schedule: Q01DX009 (ip), vehicle: saline with Tween-80 104 % of control | dose: 400.0 mg/kg/injection, schedule: Q01DX009 (ip), vehicle: saline with Tween-80 104 % of control

C1=NC(c2ccccn2)=NNC(c2ccccn2)=C1c1ccccc1
inactive: [6] 97 % of control | dose: 25.0 mg/kg/injection, schedule: Q01DX009 (ip), vehicle: Klucel (hydroxypropylcellulose) (HPC) 98 % of control | [7] 93 % of control | [8] 96 % of control | [9] 93 % of control

CC(=O)NOCC1NC(=O)C(CONC(C)=O)NC1=O (stereo not given)
inactive: dose: 30.0 mg/kg/injection, schedule: Q01DX005 (ip), vehicle: saline 103 % of control | dose: 60.0 mg/kg/injection, schedule: Q01DX005 (ip), vehicle: Klucel (hydroxypropylcellulose) (HPC) 105 % of control | dose: 60.0 mg/kg/injection, schedule: Q01DX005 (ip), vehicle: saline 103 % of control | [4] 115 % of control | dose: 120.0 mg/kg/injection, schedule: Q01DX005 (ip), vehicle: saline 108 % of control | [5] 120 % of control | dose: 240.0 mg/kg/injection, schedule: Q01DX005 (ip), vehicle: saline 120 % of control

CC1CC(Nc2ccc(NC3=CC(=O)OC(C)C3)cc2)=CC(=O)O1 (stereo not given)
inactive: [1] 94 % of control | [2] 92 % of control | [3] 90 % of control

O=C1NC(=O)C23CC=CCC12CCCC3 (stereo not given)
inactive: [7] 101 % of control | [8] 100 % of control | [9] 100 % of control
